Measurements published in patent US5976523A, “Method for healing compromised tissues using pyrimidine derivatives” (Mitsui Pharmaceuticals, Inc., priority 1995, dated 1999).
Structures can show the parent of a compound that is named as a salt.

What was measured:
TMK1 cells = assay: Morphological change of TMK1 cells; type: cell-based
PDGF-A mRNAs = assay: Northern blot analysis of PDGF-A mRNA expression in cultured rat SMCs; type: cell-based
Procedure: SMCs were prepared following the method proposed by Ross and Klebanoff in "J. Cell. Biol.", 50, 159 ff, 1971 with partial modifications. A rat thoracic aorta was excised. After the tunica externa was peeled off, the tunica media and the tunica intima were minced into 2-3 mm^2. The minced sections were placed standstill in a 25-cm^2 flask which contained Waymouth's MB 752/1 medium containing 10% FBS and 80 ng/ml of gentamycin (product of Schering-Plough Corp.), followed by incubation at 37° C. for 2 to 3 weeks in the presence of 5% carbon dioxide gas (primary culture). The same volume of a trypsin-EDTA solution was added to the flask. After the sections were treated at 37° C. for 5 minutes to peel off cells, the cells were diluted with 10% FBS-Waymouth's MB 752/1 medium and then subcultured (second generation). Subculture was successively conducted likewise whenever the SMC became confluent. In the following experiments, the cells from the 5th generation to the 12th generation were employed.
After reach in confluence of cells, the cultured SMCs were cultured for 2 days in a serum-free medium to avoid influence of serum. The SMCs were then added with thrombin (1.0 U/ml) or serotonin (5 μM), followed by incubation at 37° C. for 6 hours under which bring about induction of PDGF-A mRNAs at the maximum. To prevent dissociation of ribosomes and mRNAs, cycloheximide (100 μg/ml) was added 5 minutes before cells were collected.
Preparation of a polysome fraction and extraction of RNAs were conducted following the method proposed by Kasper, et al. in "J. Biol. Chem.", 267, 508 ff, 1992 with slight modifications. The cells, which had been collected by the treatment with trypsin, were washed with PBS containing cycloheximide (100 μg/ml). A cell precipitate was then added with 500 μl of a high-salt lysis buffer (20 mM Tris-HCl pH 7.5, 250 mM NaCl, 5 mM MgCl2, 0.1% Noni det P-40, 0.2% DOC) for homogenization. The homogenate was centrifuged under 12,000×g at 4° C. for 10 minutes. The resulting supernatant was added with 67 μl of a heparine mix (7.4 mg/ml heparine, 1.1M NaCl, 15 mM DTT and RNasin). 200 μl of the extract were layered on 5 ml of 0.5-1.25M linear sucrose gradient (which contained 20 mM Tris-HCl pH 7.4, 10 mM NaCl, 3 mM MgCl2), followed by centrifugation under 45,000 rpm for 90 minutes in a "Hitachi RP55ST". While monitoring the absorbance at 260 nm, ten (10) fractions were obtained. To prepare samples for the extraction of RNAs, the fractions were individually added with SDS and proteinase K to give final concentrations of 1% and 0.2 mg/ml, respectively. Subsequent to incubation at 37° C. for 1 hour, each fraction was extracted once with 1/2 volume of phenol, twice with 1/2 volume aliquots of chloroform, and once with the equal volume of chloroform, whereby proteins were removed. The water layer was added with glycogen (20 μg/ml) as a coprecipitant and then with 0.03M of sodium acetate, and RNAs were caused to precipitate with 2 volumes of ethanol.
After RNAs were incubated at 65° C. for 5 minutes in a solution containing 60% of formamide, 5.9% of formaldehyde and the equal volume of MOPS buffer (10 mM MOPS pH 7.0, 4 mM NaOAc, 0.5 mM EDTA), electrophoresis was conducted across 1.2% agarose gels containing the equal volume of MOPS buffer so that RNAs were. isolated. After the gel was washed with 20 volumes of SSC, RNAs were blotted overnight to a Gene Screen Plus membrane by the capillary method. Fixing of the RNAs was conducted by exposing them for 1 minute at a distance of 10 cm from a 15-W sterilamp. Using a "QuickHyb Hybridization Solution" (product of Strategene Ltd.), hybridization was conducted following the instruction manual attached to the solution. Results of autoradiography were quantitated with reference to the NIH Image. […]

## CN1Cc2nc(N3CCNCC3)ncc2C1=O [Compound B, 2-piperazino-6-methyl-5-oxo-5,6-dihydro(7H)pyrro[3,4-d]pyrimidine maleate]
TMK1 cells; EGF and compound
  time of sprouting of the process of the cells similar to neurites: 8 h
TMK1 cells; EGF and compound, compared with EGF alone
  morphological changes: still more marked intensive morphological changes
TMK1 cells; EGF and compound, day 1
  network formation of cell processes: forming a dense network on day 1
TMK1 cells; singly added, 1 mM, fifth hour to day 1
  morphological changes: only slight morphological changes
TMK1 cells; test agent removed
  morphological changes after removal of the test agent: these morphological changes disappeared
PDGF-A mRNAs; Rattus norvegicus, 6 h, read-out: expression amount of 1.7 kb PDGF-A mRNAs compared with control
  fold induction at 100 µM: 1.4
PDGF-A mRNAs; addition of compound
  band of 1.3 kb PDGF-A: additionally detected
PDGF-A mRNAs; compound 0.1 mM + thrombin
  2.3 kb PDGF-A mRNAs: in greater amounts
  2.9 kb PDGF-A mRNAs: in greater amounts
